Laboratory results published in patent US20240092790A1, “DIHYDROFUROPYRIDINE DERIVATIVES AS RHO- KINASE INHIBITORS” (CHIESI FARMACEUTICI S.P.A., priority 2020, published 2024).

Assays:
Format in all cases: biochemical
PKA = PKA (Homo sapiens, UniProt P17612); test: In vitro inhibitory activity assay for PKA (ADP-Glo), reported as selectivity ratio vs ROCK2; details: Ki value for PKA divided by Ki value of ROCK2
Procedure: In Vitro Inhibitory Activity Assay Description for PKA
The effectiveness of compounds of the present invention to inhibit PKA activity can be determined in a 10 μl assay containing 40 mM Tris pH7.5, 20 mM MgCl2 0.1 mg/ml BSA, 50 μM DTT and 260 μM peptide substrate (kemptide) using an ADP-Glo kit (Promega). Compounds were dissolved in DMSO such that the final concentration of DMSO was 1% in the assay. All reactions/incubations are performed at 25° C. Compound and PKA enzyme (6 μl) were mixed and incubated for 30 mins. Reactions were initiated by addition of ATP (4 μl) such that the final concentration of ATP in the assay was 10 μM. After a 30 minute incubation 10p of ADP-Glo Reagent was added and after a further 1 hour incubation 20 μl of Kinase Detection Buffer was added and the mixture incubated for a further 45 minutes. The luminescent signal was measured on a luminometer. […] Compounds were tested in dose-response format and the inhibition of kinase activity was calculated at each concentration of compound. To determine the IC50 (concentration of compound required to inhibit 50% of the enzyme activity) data were fit to a plot of % inhibition vs Log10 compound concentration using a sigmoidal fit with a variable slope and fixing the maximum to 100% and the minimum to 0%. To determine the Ki values the Cheng-Prusoff equation was utilized (Ki=IC50/(1+[S]/Km).
In vitro inhibitory activities for PKA were reported as selectivity ratio vs. ROCK-2.

ROCK2 = ROCK2 (Homo sapiens, UniProt O75116); test: In vitro inhibitory activity assay ROCK2 (ADP-Glo); details: ATP 200 μM, Cheng-Prusoff; read-out: ROCK2 (Ki, range of activity)
Procedure: (§1) In Vitro Inhibitory Activity Assay Description ROCK1 and ROCK2
(§2) The effectiveness of compounds of the present invention to inhibit Rho kinase activity can be determined in a 10 μl assay containing 40 mM Tris pH7.5, 20 mM MgCl2 0.1 mg/mL BSA, 50 μM DTT and 2.5 μM peptide substrate (Myelin Basic Protein) using an ADP-Glo kit (Promega). Compounds were dissolved in DMSO such that the final concentration of DMSO was 1% in the assay. All reactions/incubations are performed at 25° C. Compound (2 ul) and either Rho kinase 1 or 2 (4 μl) were mixed and incubated for 30 mins. Reactions were initiated by addition of ATP (4 μl) such that the final concentration of ATP in the assay was 200 μM. After a 1 hour incubation 10 μl of ADP-Glo Reagent was added and after a further 1 hour incubation 20 ul of Kinase Detection Buffer was added and the mixture incubated for a further 45 minutes. The luminescent signal was measured on a luminometer. […] Compounds were tested in dose-response format and the inhibition of kinase activity was calculated at each concentration of compound. To determine the IC50 (concentration of compound required to inhibit 50% of the enzyme activity) data were fit to a plot of % inhibition vs Log 10 compound concentration using a sigmoidal fit with a variable slope and fixing the maximum to 100% and the minimum to 0%. To determine the Ki values the Cheng-Prusoff equation was utilized (Ki=IC50/(1+[S]/Km).

ROCK1 = ROCK1 (Homo sapiens, UniProt Q13464); test: In vitro inhibitory activity assay ROCK1 (ADP-Glo); details: ATP 200 μM, Cheng-Prusoff; read-out: ROCK 1 (Ki, range of activity)
Procedure: as §1, §2

Sequence of ROCK1 (Q13464 whole entry): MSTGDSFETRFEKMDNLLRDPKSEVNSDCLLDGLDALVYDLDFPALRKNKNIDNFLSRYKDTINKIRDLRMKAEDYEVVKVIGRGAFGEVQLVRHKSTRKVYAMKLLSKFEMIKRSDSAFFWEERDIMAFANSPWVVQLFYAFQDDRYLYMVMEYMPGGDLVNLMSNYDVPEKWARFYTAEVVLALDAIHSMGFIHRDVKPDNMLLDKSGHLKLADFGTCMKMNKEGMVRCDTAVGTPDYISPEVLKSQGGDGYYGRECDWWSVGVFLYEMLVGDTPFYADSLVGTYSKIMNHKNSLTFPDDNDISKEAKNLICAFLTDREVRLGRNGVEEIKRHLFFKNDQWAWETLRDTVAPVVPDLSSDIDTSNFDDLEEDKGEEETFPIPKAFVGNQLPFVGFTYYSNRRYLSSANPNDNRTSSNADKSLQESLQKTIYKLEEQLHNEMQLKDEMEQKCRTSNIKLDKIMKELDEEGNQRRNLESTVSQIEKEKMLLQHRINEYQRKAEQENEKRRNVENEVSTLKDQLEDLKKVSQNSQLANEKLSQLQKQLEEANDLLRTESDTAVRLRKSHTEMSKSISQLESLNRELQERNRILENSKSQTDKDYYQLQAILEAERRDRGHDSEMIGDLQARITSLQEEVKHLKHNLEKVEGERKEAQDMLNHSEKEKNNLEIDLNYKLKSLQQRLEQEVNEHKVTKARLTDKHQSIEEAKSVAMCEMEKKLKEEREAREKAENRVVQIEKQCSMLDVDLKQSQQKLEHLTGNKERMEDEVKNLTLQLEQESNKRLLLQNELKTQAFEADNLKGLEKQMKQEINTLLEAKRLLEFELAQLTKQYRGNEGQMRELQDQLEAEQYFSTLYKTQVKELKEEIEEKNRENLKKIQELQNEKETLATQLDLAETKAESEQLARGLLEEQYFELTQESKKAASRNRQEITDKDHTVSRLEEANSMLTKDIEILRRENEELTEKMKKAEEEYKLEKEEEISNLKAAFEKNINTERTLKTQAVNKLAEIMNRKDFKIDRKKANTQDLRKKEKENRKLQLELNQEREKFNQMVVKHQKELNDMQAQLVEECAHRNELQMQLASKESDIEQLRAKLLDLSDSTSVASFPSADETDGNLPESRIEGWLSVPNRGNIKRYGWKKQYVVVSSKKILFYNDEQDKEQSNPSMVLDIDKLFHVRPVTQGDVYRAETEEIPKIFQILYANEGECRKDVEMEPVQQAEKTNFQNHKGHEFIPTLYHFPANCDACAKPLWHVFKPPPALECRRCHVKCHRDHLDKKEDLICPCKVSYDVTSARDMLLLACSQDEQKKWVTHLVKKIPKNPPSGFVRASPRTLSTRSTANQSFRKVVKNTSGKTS
Sequence of ROCK2 (O75116 whole entry): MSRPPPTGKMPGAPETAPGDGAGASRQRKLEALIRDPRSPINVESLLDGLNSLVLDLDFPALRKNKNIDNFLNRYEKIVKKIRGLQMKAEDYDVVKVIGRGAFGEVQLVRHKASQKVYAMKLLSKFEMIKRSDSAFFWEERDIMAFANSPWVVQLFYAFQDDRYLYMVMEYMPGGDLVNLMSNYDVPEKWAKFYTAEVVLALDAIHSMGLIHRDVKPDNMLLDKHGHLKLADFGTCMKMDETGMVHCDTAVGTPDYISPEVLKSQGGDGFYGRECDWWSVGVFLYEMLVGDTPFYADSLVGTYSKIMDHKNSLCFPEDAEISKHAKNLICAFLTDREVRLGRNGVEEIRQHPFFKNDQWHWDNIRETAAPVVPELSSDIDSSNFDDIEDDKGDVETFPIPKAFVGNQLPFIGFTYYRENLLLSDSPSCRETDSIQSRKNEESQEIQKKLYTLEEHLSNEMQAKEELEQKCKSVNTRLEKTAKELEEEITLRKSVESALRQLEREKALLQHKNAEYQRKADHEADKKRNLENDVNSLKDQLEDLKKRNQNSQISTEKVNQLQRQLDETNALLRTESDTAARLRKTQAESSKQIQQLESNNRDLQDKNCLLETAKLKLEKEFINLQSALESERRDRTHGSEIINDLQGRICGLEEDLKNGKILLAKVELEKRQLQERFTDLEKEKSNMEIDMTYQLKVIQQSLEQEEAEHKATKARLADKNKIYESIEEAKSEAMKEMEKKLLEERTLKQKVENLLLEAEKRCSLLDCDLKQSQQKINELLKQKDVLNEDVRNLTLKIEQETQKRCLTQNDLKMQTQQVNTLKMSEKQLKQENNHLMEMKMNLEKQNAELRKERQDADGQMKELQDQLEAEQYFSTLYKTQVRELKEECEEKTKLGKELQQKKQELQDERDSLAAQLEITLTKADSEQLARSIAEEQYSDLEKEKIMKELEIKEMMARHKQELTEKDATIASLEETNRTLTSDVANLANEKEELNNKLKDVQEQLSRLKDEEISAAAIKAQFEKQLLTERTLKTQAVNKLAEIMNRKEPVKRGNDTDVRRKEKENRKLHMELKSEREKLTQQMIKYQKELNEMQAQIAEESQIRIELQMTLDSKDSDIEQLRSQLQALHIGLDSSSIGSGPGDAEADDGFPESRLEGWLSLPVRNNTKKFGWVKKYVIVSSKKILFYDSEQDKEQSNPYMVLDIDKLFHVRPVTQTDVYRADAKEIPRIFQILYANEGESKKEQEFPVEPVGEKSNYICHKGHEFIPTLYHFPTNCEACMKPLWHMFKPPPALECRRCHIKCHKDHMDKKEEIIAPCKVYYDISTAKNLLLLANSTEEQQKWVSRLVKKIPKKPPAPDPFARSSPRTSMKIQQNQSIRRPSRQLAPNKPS

Row | Compound | Ratio (PKA/ROCK2) (PKA) | Ki (ROCK2) | Ki (ROCK1)
1 | Nc1nccc(-c2cnc(NCc3cccc(C(=O)NC4CC4F)c3)c3c2OCC3)n1 (single isomer, unassigned) [Example 45, Trans 3-(((7-(2-Aminopyrimidin-4-yl)-2,3-dihydrofuro[3,2-c]pyridin-4-yl)amino)methyl)-N-(2-fluorocyclopropyl)benzamide] | *** (ratio≥10) | ≤ 3 nM | ≤ 3 nM
2 | Nc1nccc(-c2cnc(NCc3cccc(C(=O)NC4CCOCC4)c3F)c3c2OCC3)n1 [Example 56, 3-(((7-(2-Aminopyrimidin-4-yl)-2,3-dihydrofuro[3,2-c]pyridin-4-yl)amino)methyl)-2-fluoro-N-(tetrahydro-2H-pyran-4-yl)benzamide] | *** (ratio≥10) | 3 to 30 nM | 3 to 30 nM
3 | CNC(=O)c1cccc(CNc2ncc(-c3ccnc(N)n3)c3c2CCO3)c1 [Example 21, 3-(((7-(2-Aminopyrimidin-4-yl)-2,3-dihydrofuro[3,2-c]pyridin-4-yl)amino)methyl)-N-methylbenzamide] | *** (ratio≥10) | ≤ 3 nM | 3 to 30 nM
4 | Nc1nccc(-c2cnc(NCc3cccc(C(=O)NCC4CCO4)c3)c3c2OCC3)n1 (stereo not drawn) [Example 38, 3-(((7-(2-Aminopyrimidin-4-yl)-2,3-dihydrofuro[3,2-c]pyridin-4-yl)amino)methyl)-N-(oxetan-2-ylmethyl)benzamide] | *** (ratio≥10) | ≤ 3 nM | ≤ 3 nM
5 | Nc1nccc(-c2cnc(NCc3cccc(C(=O)NCCN4CCCCC4)c3)c3c2OCC3)n1 [Example 5, 3-(((7-(2-Aminopyrimidin-4-yl)-2,3-dihydrofuro[3,2-c]pyridin-4-yl)amino)methyl)-N-(2-(piperidin-1-yl)ethyl)benzamide] | *** (ratio≥10) | ≤ 3 nM | ≤ 3 nM
6 | [2H]C([2H])([2H])OCCCNC(=O)c1cccc(CNc2ncc(-c3ccnc(N)n3)c3c2CCO3)c1 [Example 6, 3-(((7-(2-aminopyrimidin-4-yl)-2,3-dihydrofuro[3,2-c]pyridin-4-yl)amino)methyl)-N-(3-(methoxy-d3)propyl)benzamide] | *** (ratio≥10) | ≤ 3 nM | ≤ 3 nM
7 | Nc1nccc(-c2cnc(NCc3cccc(C(=O)NC4CC4F)c3)c3c2OCC3)n1 (single isomer, unassigned) [Example 46, Trans 3-(((7-(2-Aminopyrimidin-4-yl)-2,3-dihydrofuro[3,2-c]pyridin-4-yl)amino)methyl)-N-(2-fluorocyclopropyl)benzamide] | *** (ratio≥10) | ≤ 3 nM | ≤ 3 nM
8 | COC(C)(C)CNC(=O)c1cccc(CNc2ncc(-c3ccnc(N)n3)c3c2CCO3)c1 [Example 27, 3-(((7-(2-Aminopyrimidin-4-yl)-2,3-dihydrofuro[3,2-c]pyridin-4-yl)amino)methyl)-N-(2-methoxy-2-methylpropyl)benzamide] | *** (ratio≥10) | ≤ 3 nM | ≤ 3 nM
9 | CC(C)NC(=O)c1cccc(CNc2ncc(-c3ccnc(N)n3)c3c2CCO3)c1 [Example 11, 3-(((7-(2-Aminopyrimidin-4-yl)-2,3-dihydrofuro[3,2-c]pyridin-4-yl)amino)methyl)-N-isopropylbenzamide] | *** (ratio≥10) | 3 to 30 nM | 3 to 30 nM
10 | COCCCNC(=O)c1cccc(CNc2ncc(-c3ccnc(N)n3)c3c2CCO3)c1 [Example 8, 3-(((7-(2-Aminopyrimidin-4-yl)-2,3-dihydrofuro[3,2-c]pyridin-4-yl)amino)methyl)-N-(3-methoxypropyl)benzamide] | *** (ratio≥10) | ≤ 3 nM | ≤ 3 nM
11 | Nc1nccc(-c2cnc(NCc3cccc(C(=O)NC4CCOCC4)c3)c3c2OCC3)n1 [Example 7, 3-(((7-(2-Aminopyrimidin-4-yl)-2,3-dihydrofuro[3,2-c]pyridin-4-yl)amino)methyl)-N-(tetrahydro-2H-pyran-4-yl)benzamide] | *** (ratio≥10) | ≤ 3 nM | ≤ 3 nM
12 | CN1CCC(NC(=O)c2cccc(CNc3ncc(-c4ccnc(N)n4)c4c3CCO4)c2)CC1 [Example 13, 3-(((7-(2-Aminopyrimidin-4-yl)-2,3-dihydrofuro[3,2-c]pyridin-4-yl)amino)methyl)-N-(1-methylpiperidin-4-yl)benzamide] | *** (ratio≥10) | ≤ 3 nM | ≤ 3 nM
13 | COCC1(CNC(=O)c2cccc(CNc3ncc(-c4ccnc(N)n4)c4c3CCO4)c2)CC1 [Example 28, 3-(((7-(2-Aminopyrimidin-4-yl)-2,3-dihydrofuro[3,2-c]pyridin-4-yl)amino)methyl)-N-((1-(methoxymethyl)cyclopropyl)methyl)benzamide] | *** (ratio≥10) | ≤ 3 nM | 3 to 30 nM
14 | CN1CCOC(CNC(=O)c2cccc(CNc3ncc(-c4ccnc(N)n4)c4c3CCO4)c2)C1 (single isomer, unassigned) [Example 34, 3-(((7-(2-Aminopyrimidin-4-yl)-2,3-dihydrofuro[3,2-c]pyridin-4-yl)amino)methyl)-N-((4-methylmorpholin-2-yl)methyl)benzamide] | *** (ratio≥10) | ≤ 3 nM | ≤ 3 nM
15 | Nc1nccc(-c2cnc(NCc3cccc(C(=O)NCCCN4CCOCC4)c3)c3c2OCC3)n1 [Example 16, 3-(((7-(2-Aminopyrimidin-4-yl)-2,3-dihydrofuro[3,2-c]pyridin-4-yl)amino)methyl)-N-(3-morpholinopropyl)benzamide] | *** (ratio≥10) | ≤ 3 nM | ≤ 3 nM
16 | CC(C)(O)CNC(=O)c1cccc(CNc2ncc(-c3ccnc(N)n3)c3c2CCO3)c1 [Example 17, 3-(((7-(2-Aminopyrimidin-4-yl)-2,3-dihydrofuro[3,2-c]pyridin-4-yl)amino)methyl)-N-(2-hydroxy-2-methylpropyl)benzamide] | *** (ratio≥10) | ≤ 3 nM | ≤ 3 nM
17 | CC(F)(F)CNC(=O)c1cccc(CNc2ncc(-c3ccnc(N)n3)c3c2CCO3)c1 [Example 44, 3-(((7-(2-Aminopyrimidin-4-yl)-2,3-dihydrofuro[3,2-c]pyridin-4-yl)amino)methyl)-N-(2,2-difluoropropyl)benzamide] | *** (ratio≥10) | ≤ 3 nM | ≤ 3 nM
18 | COCCNC(=O)c1cccc(CNc2ncc(-c3ccnc(N)n3)c3c2CCO3)c1 [Example 9, 3-(((7-(2-Aminopyrimidin-4-yl)-2,3-dihydrofuro[3,2-c]pyridin-4-yl)amino)methyl)-N-(2-methoxyethyl)benzamide] | *** (ratio≥10) | ≤ 3 nM | ≤ 3 nM
19 | Nc1nccc(-c2cnc(NCc3cccc(C(=O)N[C@@H]4C[C@@H]4F)c3)c3c2OCC3)n1 [Example 37, 3-(((7-(2-Aminopyrimidin-4-yl)-2,3-dihydrofuro[3,2-c]pyridin-4-yl)amino)methyl)-N-((1R,2S)-2-fluorocyclopropyl)benzamide] | *** (ratio≥10) | ≤ 3 nM | ≤ 3 nM
20 | COCCCNC(=O)c1cc(CNc2ncc(-c3ccnc(N)n3)c3c2CCO3)ccc1F [Example 57, 5-(((7-(2-Aminopyrimidin-4-yl)-2,3-dihydrofuro[3,2-c]pyridin-4-yl)amino)methyl)-2-fluoro-N-(3-methoxypropyl)benzamide] | *** (ratio≥10) | ≤ 3 nM | 3 to 30 nM
21 | C[C@@H]1CCC[C@H](C)N1CCNC(=O)c1cccc(CNc2ncc(-c3ccnc(N)n3)c3c2CCO3)c1 [Example 19, 3-(((7-(2-Aminopyrimidin-4-yl)-2,3-dihydrofuro[3,2-c]pyridin-4-yl)amino)methyl)-N-(2-((2R,6S)-2,6-dimethylpiperidin-1-yl)ethyl)benzamide] | *** (ratio≥10) | ≤ 3 nM | ≤ 3 nM
